Where two headings read alike, the source gives them in different places.
Tests used:
hCB1 [1] = target: T1, hCB1 (Homo sapiens, UniProt P21554); assay: Agonism of CB1 receptors expressed in CHO cells, forskolin cAMP assay (Protocol IX.2); assay type: cell-based; design: expressed in transfected cells; host or cells: CHO (h-CB1/CHO, G418-selected); conditions: CHO, at 10 uM, h-CB1/CHO cells, cAMP
Protocol: (§1) IX. Assay for Determining Agonist and Antagonist Activity to CB1 and CB2 Receptors
(§2) 2. Agonism of CB1/CB2 Receptors Expressed in CHO Cells
(§3) h-CB1/CHO or h-CB2/CHO cells were grown in HAM's F12 DMEM medium (Sigma) with 10% FBS (Hyclone), 1% penicillin-streptomycin solution and 400 μg/ml of G418 (Sigma). 5000 cells were seeded per well in a 96 well plate and incubated for 24 hours at 37° C. in 5% CO2. On the day of assay, cells were washed with warm Krebs Buffer containing 0.1% fatty acid free (FAF) BSA (Sigma) and re-suspended in the same buffer containing 1 mM IBMX. […] At the end of incubation, cells were lysed using lysis reagent from the cAMP estimation kit and cAMP was quantitated by chemiluminescence method described in the manufacturer's instructions (DiscoveRX). EC50 values were calculated from dose response curves by nonlinear regression analysis using PRISM software.

hCB1 [2] = target: T1, hCB1; assay: Antagonism of CB1 receptors expressed in CHO cells, cAMP assay against CP 55,940 (Protocol IX.1); assay type: cell-based; design: expressed in transfected cells; host or cells: CHO (h-CB1/CHO, G418-selected); conditions: at 10 uM, h-CB1/CHO cells, cAMP, vs 30 nM CP 55,940; read-out: hCB1 Antagonism
Protocol: as §1
(§4) 1. Antagonism of CB1/CB2 Receptors Expressed in CHO Cells.
as §3, with “warm Krebs buffer containing 0.1%” for “warm Krebs Buffer containing 0.1%”, “quantitated by the chemiluminescence method” for “quantitated by chemiluminescence method”

CB1 [3] = target: T2, CB1 (Rattus norvegicus, UniProt P20272); assay: GTPγS binding assay, CB1 functional assay in rat cerebellar membrane (Protocol VIII); assay type: biochemical; design: 10 μg rat cerebellum membrane; from tissue; host or cells: rat cerebellum membrane, prepared in-house
Summary of the method: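 Rat cerebellar membranes (10 μg) incubated 1 h at 30 °C with 0.2 nM [35S]GTPγS, 50 μM GDP, and compound at 1 μM or 300 nM, alone or with 1 μM WIN 55,212-2, in Tris/MgCl2/EGTA/NaCl pH 7.4. Filter-bound radioactivity counted; percent stimulation calculated against basal specific binding (nonspecific defined by 10 μM GTPγS).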

CB1 [4] = target: T2, CB1; assay: Rat CB1 receptor binding using brain membrane, [3H]SR141716A displacement (Protocol I); design: CB1 receptor present in a rat brain membrane preparation; from tissue; host or cells: rat brain membrane; inhibition: dose or concentration left out as unconfirmed; conditions: 1 h; rat brain membrane, [3H]SR141716A displacement; read-out: % Displacement Protocol I
hCB2 [5] = target: T3, hCB2 (Homo sapiens, UniProt P34972); assay: Agonism of CB2 receptors expressed in CHO cells, forskolin cAMP assay (Protocol IX.2); assay type: cell-based; design: expressed in transfected cells; host or cells: CHO (h-CB2/CHO, G418-selected); conditions: cAMP; for hCB2 Agonism: at 10 uM
Protocol: as §1, §2
h-CB1/CHO or h-CB2/CHO cells were grown in HAM's F12 DMEM medium (Sigma) with 10% FBS (Hyclone), 1% penicillin-streptomycin solution and 400 μg/ml of G418 (Sigma). 5000 cells were seeded per well in a 96 well plate and incubated for 24 hours at 37° C. in 5% CO2. On the day of assay, cells were washed with warm Krebs Buffer containing 0.1% fatty acid free (FAF) BSA (Sigma) and re-suspended in the same buffer containing 1 mM IBMX. Test compound or CP 55,940 as a reference compound (30 nM final concentration for CB1 testing and 10 μM of the same for CB2 testing) diluted in FFB+IBMX+Krebs buffer was added to the cells followed by forskolin addition (10 uM final concentration) and incubated for 30 minutes at room temperature. At the end of incubation, cells were lysed using lysis reagent from the cAMP estimation kit and cAMP was quantitated by chemiluminescence method described in the manufacturer's instructions (DiscoveRX). EC50 values were calculated from dose response curves by nonlinear regression analysis using PRISM software.

hCB2 [6] = target: T3, hCB2; assay: Antagonism of CB2 receptors expressed in CHO cells, cAMP assay against CP 55,940 (Protocol IX.1); assay type: cell-based; design: expressed in transfected cells; host or cells: CHO (h-CB2/CHO, G418-selected); conditions: CHO, h-CB2/CHO cells, vs 10 nM CP 55,940
Protocol: as §1, §4
h-CB1/CHO or h-CB2/CHO cells were grown in HAM's F12 DMEM medium (Sigma) with 10% FBS (Hyclone), 1% penicillin-streptomycin solution and 400 μg/ml of G418 (Sigma). 5000 cells were seeded per well in a 96 well plate and incubated for 24 hours at 37° C. in 5% CO2. On the day of assay, cells were washed with warm Krebs buffer containing 0.1% fatty acid free (FAF) BSA (Sigma) and re-suspended in the same buffer containing 1 mM IBMX. Test antagonist or reference compound (AM 251 (1-(2,4-dichlorophenyl)-5-(4-iodophenyl)-4-methyl-N-(1-piperidyl)pyrazole-3-carboxamide) for CB1 and SR144528 for CB2) diluted in FAFBSA+IBMX+Krebs buffer was added to the cells and incubated for 10 minutes at room temperature. CP 55,940 (30 nM final concentration for CB1 testing and 10 nM of the same for CB2 testing) was added to cells followed by forskolin (10 μM final concentration) and incubated for 30 minutes at room temperature. At the end of incubation, cells were lysed using lysis reagent from the cAMP estimation kit and cAMP was quantitated by the chemiluminescence method described in the manufacturer's instructions (DiscoveRX). EC50 values were calculated from dose response curves by nonlinear regression analysis using PRISM software.

hCB2 [7] = target: T3, hCB2; assay: In vitro binding assay using hCB2-CHO membranes, [3H]-CP-55,940 displacement (Protocol IV); design: expressed in transfected cells; host or cells: CHO (hCB2-CHO, generated in-house); conditions: 1 h, read-out: % Displacement Protocol IV
Summary of the method: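 Compounds were tested at a single 300 nM final concentration for displacing 0.75 nM [3H]-CP-55,940 from hCB2-CHO membranes (1 h, 30 °C, 50 mM Tris pH 7.4, 5 mM MgCl2, 1 mM EDTA, 0.1% BSA). Filter-bound radioactivity was counted, with 0.5 μM unlabelled CP-55,940 for nonspecific binding; results are % displacement.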

[8] = hCB2 Agonism IC50, h-CB2/CHO cells
[9] = hCB2-CHO membranes, [3H]-CP-55,940 displacement
[10] = h-CB2/CHO cells, read-out: hCB2 Agonism IC50

T2 sequence (P20272 whole entry): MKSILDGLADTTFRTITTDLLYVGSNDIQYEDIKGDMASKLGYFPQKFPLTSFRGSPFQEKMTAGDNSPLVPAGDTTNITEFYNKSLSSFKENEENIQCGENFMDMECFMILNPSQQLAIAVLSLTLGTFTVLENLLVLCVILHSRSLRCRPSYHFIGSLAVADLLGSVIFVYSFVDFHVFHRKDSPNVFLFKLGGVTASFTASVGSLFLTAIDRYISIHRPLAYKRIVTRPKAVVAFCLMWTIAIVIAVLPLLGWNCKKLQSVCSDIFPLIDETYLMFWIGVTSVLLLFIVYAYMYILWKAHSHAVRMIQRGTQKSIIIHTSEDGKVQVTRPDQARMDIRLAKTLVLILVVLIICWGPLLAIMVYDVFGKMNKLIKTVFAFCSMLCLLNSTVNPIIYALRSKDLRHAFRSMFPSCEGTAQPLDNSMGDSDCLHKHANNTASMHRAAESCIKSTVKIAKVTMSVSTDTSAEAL
T1 sequence (P21554 whole entry): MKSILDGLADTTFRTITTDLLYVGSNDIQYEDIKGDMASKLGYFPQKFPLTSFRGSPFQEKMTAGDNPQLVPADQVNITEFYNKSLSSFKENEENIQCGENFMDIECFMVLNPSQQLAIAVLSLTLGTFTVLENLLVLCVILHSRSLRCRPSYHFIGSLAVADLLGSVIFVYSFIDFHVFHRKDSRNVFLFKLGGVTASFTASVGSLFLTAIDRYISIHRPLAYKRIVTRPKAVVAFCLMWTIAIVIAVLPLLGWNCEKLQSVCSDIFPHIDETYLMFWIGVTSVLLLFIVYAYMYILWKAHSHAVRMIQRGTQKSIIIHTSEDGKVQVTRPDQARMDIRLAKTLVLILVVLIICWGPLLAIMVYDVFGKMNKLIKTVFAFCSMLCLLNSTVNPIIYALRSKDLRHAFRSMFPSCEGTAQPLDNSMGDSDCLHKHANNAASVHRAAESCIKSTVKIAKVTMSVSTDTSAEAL
T3 sequence (P34972 whole entry): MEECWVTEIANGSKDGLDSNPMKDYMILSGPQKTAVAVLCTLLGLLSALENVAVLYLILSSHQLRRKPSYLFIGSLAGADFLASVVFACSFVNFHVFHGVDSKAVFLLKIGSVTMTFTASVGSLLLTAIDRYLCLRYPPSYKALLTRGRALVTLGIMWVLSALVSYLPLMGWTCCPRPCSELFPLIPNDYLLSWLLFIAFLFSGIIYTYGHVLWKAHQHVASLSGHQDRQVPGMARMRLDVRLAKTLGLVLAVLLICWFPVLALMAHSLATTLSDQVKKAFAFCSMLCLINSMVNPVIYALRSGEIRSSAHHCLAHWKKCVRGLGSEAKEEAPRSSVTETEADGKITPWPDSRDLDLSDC

O=C(NNc1ncccc1Cl)c1nn(-c2ccc(Cl)cc2)c2c1C1CC3CC(C1)CC2C3 [Example 134, N(7)-(3-Chloro-2-pyridylamino)-5-(4-chlorophenyl)-5,6-diazatetracyclo[7.3.1.1^3,11.0^4,8]tetradeca-4(8),6-diene-7-carboxamide]
melting point: 200 to 203 °C | activation at 10 µM (hCB1 [1]): 75.6% | inhibition at 10 µM (hCB1 [2]): 17.5% | activation at 0.3 µM (CB1 [3]; 1 h, GTPγS binding over basal, rat cerebellar membrane, tested at 300 nM, read-out: Per Se % Stimulation): -6% | inhibition at 0.3 µM (CB1 [3]; GTPγS binding, tested at 300 nM in presence of 1 μM WIN 55,212-2, read-out: % Inhibition of WIN-55212-2 induced stimulation): 58.1% | inhibition (CB1 [4]): 89.6%

O=C(NCc1ccccc1Cl)c1nn(-c2ccc(F)cc2F)c2c1C1CC3CC(C1)CC2C3 [Example 149, N(7)-(2-Chlorobenzyl)-5-(2,4-difluorophenyl)-5,6-diazatetracyclo[7.3.1.1^3,11.0^4,8]tetradeca-4(8),6-diene-7-carboxamide]
melting point: 136 °C | activation at 10 µM (hCB1 [1]): 79.9% | inhibition at 10 µM (hCB1 [2]): 16%

O=C(NNc1ccc(Cl)cc1Cl)c1nn(-c2ccc(F)cc2F)c2c1C1CC3CC(C1)CC2C3 [Example 150, N(7)-(2,4-Dichlorophenylamino)-5-(2,4-difluorophenyl)-5,6-diazatetracyclo[7.3.1.1^3,11.0^4,8]tetradeca-4(8),6-diene-7-carboxamide]
melting point: 162 °C | activation at 10 µM (hCB1 [1]): 61.1% | inhibition at 10 µM (hCB1 [2]): 42.9%

O=C(NC1CCCCC1)c1nn(-c2ccccc2Cl)c2c1C1CCC2C1 (stereo not drawn) [Example 206, N(3)-Cyclohexyl-1-(2-chlorophenyl)-4,5,6,7-tetrahydro-1H-4,7-methano-indazole-3-carboxamide]
melting point: 171 °C | IC50 (hCB2 [5]; [8]): 10.5 nM | inhibition at 10 µM (hCB2 [6]): 16% | inhibition at 0.3 µM (hCB2 [7]; [9]): 71.9% | inhibition (CB1 [4]): 27.4%

O=C(NCc1ccc(Cl)cc1Cl)c1nn(-c2ccc(Cl)cc2)c2c1C1CCC2C1 (stereo not drawn) [Example 223, N(3)-(2,4-Dichlorobenzyl)-1-(4-chlorophenyl)-4,5,6,7-tetrahydro-1H-4,7-methano-indazole-3-carboxamide]
melting point: 108 to 111 °C | inhibition at 10 µM (hCB1 [2]): 0% | IC50 (hCB2 [5]; [8]): 1.49 nM | inhibition at 10 µM (hCB2 [6]): 24.4% | inhibition at 0.3 µM (hCB2 [7]; [9]): 59.5% | inhibition (CB1 [4]): 52.1%

O=C(NCC1CCCCC1)c1nn(-c2ccc(Cl)cc2Cl)c2c1C1CCC2C1 (stereo not drawn) [Example 238, N(3)-Cyclohexylmethyl-1-(2,4-dichlorophenyl)-4,5,6,7-tetrahydro-1H-4,7-methano-indazole-3-carboxamide]
melting point: 111 to 113 °C | hCB2 Agonism (hCB2 [5]; h-CB2/CHO cells): 55.05% at | inhibition at 10 µM (hCB2 [6]): 24.5% | activation at 1 µM (CB1 [3]; 1 h, GTPγS binding over basal, rat cerebellar membrane, tested at 1 uM, read-out: Per Se % Stimulation): 0.4% | inhibition at 1 µM (CB1 [3]; GTPγS binding, tested at 1 uM in presence of 1 μM WIN 55,212-2, read-out: % Inhibition of WIN-55212-2 induced stimulation): 59.1% | inhibition (CB1 [4]): 73.9%

O=C(NN(C1CCCCC1)C1CCCCC1)c1nn(-c2ccc(Cl)cc2Cl)c2c1C1CCC2C1 (stereo not drawn) [Example 239, N(3)-(N,N-Dicyclohexylamino)-1-(2,4-dichlorophenyl)-4,5,6,7-tetrahydro-1H-4,7-methano-indazole-3-carboxamide]
melting point: 127 to 130 °C | IC50 (hCB2 [5]; [8]): 42.5 nM | inhibition at 10 µM (hCB2 [6]): 64.1% | inhibition at 0.3 µM (hCB2 [7]; [9]): 77.1% | inhibition (CB1 [4]): 23.5%

O=C(NNc1ccc(F)cc1F)c1nn(-c2ccc(Cl)cc2Cl)c2c1C1CCC2C1 (stereo not drawn) [Example 265, N(3)-[(2,4-Difluorophenyl)amino]-1-(2,4-dichlorophenyl)-4,5,6,7-tetrahydro-1H-4,7-methano-indazole-3-carboxamide]
melting point: 157 to 160 °C | IC50 (hCB2 [5]; [8]): 23.1 nM | inhibition at 10 µM (hCB2 [6]): 27.2% | inhibition at 0.3 µM (hCB2 [7]; [9]): 70.2% | inhibition (CB1 [4]): 31.6%

CCCCCNC(=O)c1nn(-c2ccc(F)cc2F)c2c1C1CCC2C1 (stereo not drawn) [Example 306, N5-n-Pentyl-3-(2,4-difluorophenyl)-3,4-diazatricyclo[5.2.1.0^2,6]deca-2(6),4-diene-5-carboxamide]
melting point: 75 to 78 °C | IC50 (hCB2 [5]; [10]): 11.9 nM | inhibition at 10 µM (hCB2 [6]): 14.4% | inhibition at 0.3 µM (hCB2 [7]): 62.9%

O=C(NCc1ccc(Cl)cc1Cl)c1nn(-c2ccc(F)cc2F)c2c1C1CCC2C1 (stereo not drawn) [Example 307, N5-(2,4-Dichlorobenzyl)-3-(2,4-difluorophenyl)-3,4-diazatricyclo[5.2.1.0^2,6]deca-2(6),4-diene-5-carboxamide]
melting point: 105 to 108 °C | IC50 (hCB2 [5]; [10]): 0.81 nM | inhibition at 10 µM (hCB2 [6]): 21.6% | inhibition at 0.3 µM (hCB2 [7]): 70.3%

O=C(NC12CC3CC(CC(C3)C1)C2)c1nn(-c2ccc(Cl)cc2Cl)c2c1C1CCC2c2ccccc21 (stereo not drawn) [Example 506, N(12)-(Adamantan-1yl)-10-(2,4-dichlorophenyl)-10,11-diazatetracyclo[6.5.2.0^2,7.0^9,13]pentadeca-2,4,6,9(13),11-pentaene-12-carboxamide]
melting point: 120 to 124 °C | hCB2 Agonism (hCB2 [5]; h-CB2/CHO cells): 0% at 10 uM | inhibition at 10 µM (hCB2 [6]): 80.2% | inhibition at 0.3 µM (hCB2 [7]): 52.4%
